Columns and labels:
[1] = test system: sigma (non-selective) (h); experiment: CEREP radioligand binding; set-up: species or system human; conditions: radioligand [^3H]-DTG
Excerpt: Supplement Table1.docx, table 3: Supplementary Table S3. RG7774 binding to non-CB1R/CB2R receptors, ion channels, transporters, and enzymes (CEREP, Celle l’Evescault, France; http://www.cerep.fr). | column: % inhibition of control SB (n = 2)

[2] = test system: LPS-induced leukocyte adhesion; experiment: LPS-induced leukocyte adhesion in mice with EIU (IVM); format: in vivo, BALB/c mice; conditions: 6 h after LPS
Experimental: Male BALB/c mice aged 8–10 weeks and weighing 21–26 g (Charles River, QC, Canada) were housed in individually ventilated Allentown cages (Allentown Inc., NJ, United States). Maximum density was n = 5 per cage, with the same litter and sex. Male Lewis rats aged 7–10 weeks and weighing 200–300 g (Charles River, QC, Canada) were housed in static cages (Allentown Inc., NJ, United States), n = 2 per cage with the same litter and sex. Both mice and rats were maintained in a controlled environment (21°C–22°C, humidity range 40%–60%, and a 12 h light/dark cycle), with unrestricted access to food and water. All experiments were conducted in accordance with the standards and procedures of the Canadian Council on Animal Care ([CCAC, 2024]) and were approved by the Dalhousie University Committee on Laboratory Animals. The protocol #13-027 was approved for experimental work in mice. […] All experiments were performed and are reported in accordance with the ARRIVE guidelines ([Kilkenny et al., 2010]; [McGrath et al., 2010]).
Mice and rats were anesthetized with 5% isoflurane in 100% O2 and intraperitoneal (IP) injection of sodium pentobarbital (65 mg/kg), respectively, before receiving IVT injections of sterile 0.9% saline solution (control) or 125 ng/μL LPS (L8274, Sigma-Aldrich, St. Louis, MO, United States) diluted in 0.9% saline. Injections were administered through the pars plana using a 30-gauge needle and Hamilton syringe (Hamilton Company, Reno, NV, United States) with the assistance of a WILD M37 dissecting microscope (Leitz Canada, Vaughan, ON, Canada). Mice received 2 μL of the LPS solution; rats received 5 μL. To avoid touching the lens or damaging the eye, the tip of the needle was directed toward the posterior pole and only the beveled tip (2–3 mm) was allowed to enter the vitreal cavity. […]
IVM was used for in vivo investigations of LPS-induced leukocyte recruitment as previously described ([Toguri et al., 2014]). […] The depth of anesthesia throughout the procedure was assessed by the absence of a toe-pinch reflex. […]

[3] = target: T1, Human 5-LOX (Homo sapiens, UniProt P09917); experiment: Human 5-LOX assay; format: biochemical; conditions: RG7774 10 µM; read-out: Mean ± SEM % inhibition of control, Human 5-LOX
T1 construct: purchased Cayman Chemical Company #60402
T1 sequence (P09917 whole entry): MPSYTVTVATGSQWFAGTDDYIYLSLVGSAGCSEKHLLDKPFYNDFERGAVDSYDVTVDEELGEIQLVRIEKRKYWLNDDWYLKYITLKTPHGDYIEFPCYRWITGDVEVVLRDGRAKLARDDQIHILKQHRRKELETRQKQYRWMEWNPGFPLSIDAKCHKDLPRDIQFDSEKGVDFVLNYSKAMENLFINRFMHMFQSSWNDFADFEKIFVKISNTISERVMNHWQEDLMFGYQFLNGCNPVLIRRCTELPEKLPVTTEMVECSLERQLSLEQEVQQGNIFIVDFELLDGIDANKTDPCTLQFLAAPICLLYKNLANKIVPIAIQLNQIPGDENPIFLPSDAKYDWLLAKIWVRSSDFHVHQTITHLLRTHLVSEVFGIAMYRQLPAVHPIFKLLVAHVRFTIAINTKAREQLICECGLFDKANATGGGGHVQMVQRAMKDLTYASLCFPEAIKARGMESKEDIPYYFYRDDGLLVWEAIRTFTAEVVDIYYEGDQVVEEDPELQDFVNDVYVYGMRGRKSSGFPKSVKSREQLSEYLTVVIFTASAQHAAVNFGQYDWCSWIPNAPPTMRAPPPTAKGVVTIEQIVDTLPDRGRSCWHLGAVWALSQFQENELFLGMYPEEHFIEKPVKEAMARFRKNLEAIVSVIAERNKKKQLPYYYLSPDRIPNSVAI
Experimental: The inhibitory effects of different concentrations of RG7774 (0.1-500 µM) on the activities of human recombinant 5-LOX (Cayman Chemical Company #60402), 15-LOX (Cayman Chemical Company #10011263), and human platelet-derived 12-LOX were determined using the Biovision Lipoxygenase Activity Assay Kit (#BVN-K978-100). This kit converts the LOX substrate to an intermediate that reacted with the probe, generating a fluorescent product. The effect of RG7774 (preincubated for 15 min) at 10 µM on LOXs (5-LOX: 0.5 or 1.2 µg; 12-LOX: 20 µg; 15-LOX: 0.23 or 0.3 µg) was ascertained by adding the compounds directly to the incubation medium and the fluorescent signal, recorded at excitation/emission 500/536 nm at 30 sec intervals for 30-40 min, was directly proportional to LOX activity. […] The percentage of human 5-, 12-, and 15-LOX activity (control) was estimated from the amount of oxidized probe in the reaction using a standard curve.

[4] = target: T2, Human MAGL (Homo sapiens, UniProt Q99685); experiment: Human MAGL assay (U937 cell extracts); format: biochemical; conditions: RG7774 10 µM; read-out: Mean ± SEM % inhibition of control, Human MAGL
T2 construct: Mouse brain or human U937 cell extracts (ATCC, Manassas, VI, USA); host or cells: U937 cells, 100,000 g supernatant
T2 sequence (Q99685 whole entry): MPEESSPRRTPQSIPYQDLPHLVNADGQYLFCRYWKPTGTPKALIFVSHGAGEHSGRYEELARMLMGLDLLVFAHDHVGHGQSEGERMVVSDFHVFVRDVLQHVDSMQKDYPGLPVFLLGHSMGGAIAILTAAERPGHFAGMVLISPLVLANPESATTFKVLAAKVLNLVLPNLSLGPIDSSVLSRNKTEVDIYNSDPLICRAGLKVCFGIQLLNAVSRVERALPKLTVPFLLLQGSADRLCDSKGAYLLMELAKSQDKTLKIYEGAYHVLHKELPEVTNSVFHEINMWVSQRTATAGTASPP
Experimental: The final supernatant was incubated with [^3H]-2-OG (10 µM) (ARC, MO, USA) at 37°C for 30 min as previously described, and reactions were stopped with a 2:1 (v/v) mixture of chloroform/methanol. [^3H]-glycerol release in the aqueous phase was measured by scintillation counting. […] Human supernatant (100 µg) was preincubated for 15 min at RT with 8 different concentrations of RG7774 (0.1-500 µM) in the incubation medium.

## Cn1nnnc1Cn1nnc2c(N3CC[C@H](O)C3)nc(C(C)(C)C)nc21 [RG7774, (S)-1-(5-tert-butyl-3-[(1-methyl-1H-tetrazol-5-yl)methyl]-3H-[1,2,3]triazolo[4,5-d]pyrimidin-7-yl)pyrrolidin-3-ol]
[1]
  % inhibition of control SB (n = 2): –8.2%
[2]; single IV 0.03 mg/kg
  decrease in leukocyte adhesion compared to vehicle control: 21%
[2]; single IV 0.3 mg/kg
  decrease in leukocyte adhesion compared to vehicle control: 65%
[2]; single IV 3 mg/kg
  decrease in leukocyte adhesion compared to vehicle control: 82%
[3]
  inhibition at 10 µM: -20.5%
[4]
  inhibition at 10 µM: -9.7%
